Reference: US12357695B2, “Peptides and nanoparticles for intracellular delivery of molecules” (AADIGEN, LLC, priority 2019, dated 2025)
Entries after “also recorded” stand apart in the source; their conditions may differ. Square brackets hold non-standard residues; d marks the D form. Primed or numbered codes have the meaning given here. Ends that are not written are not given here. Stearyl = stearyl group covalently linked to the N-terminus; PEG4′ = four-unit PEG spacer; PEG2′ = two-unit PEG spacer; PEG7′ = (PEG)7 moiety; Ahx = NCCCCCC(=O)O; Ava = NCCCCC(=O)O; βAla = NCCC(=O)O

Legend:
mice or rat models = assay: Summary of cargo delivery to targeted organ (Table 1); assay type: in vivo; conditions: cargoes and route (IV, IM, SQ, NB) per peptide as listed in Table 1
Text: Table 1 lists a summary of cell-penetrating peptides that have been proven successful in delivering various cargo molecules to on or more targeted organ (e.g., by intravenous (IV), intramuscular (IM), or subcutaneous (SQ) administration, or intratraccheal instillation or nebulization (NB)) in mice or rat models.

293T cells = assay: Cellular delivery of Luciferase mRNA, luciferase expression at 72 hrs; assay type: cell-based; conditions: 0.25 μg Luc mRNA; for reduction of efficiency / luciferase expression by modification or linker vs unmodified ADGN peptide: absence of serum or heparan sulfate; for luciferase expression: absence of serum or heparan sulfate treatment; for reduction of efficiency / luciferase expression after serum treatment: complexes incubated 3 hrs in 25% serum prior transfection
Procedure: FIGS. 1A-1C show luciferase expression in 293T cells treated with ADGN-peptide/mRNA complexes. 293T cells cultured in 48 well plates were transfected with ADGN-peptide nanoparticles. ADGN-100, ADGN-106, ADGN-100RI, ADGN-106RI, ADGN-100 Stearyl, ADGN-Hydro1, ADGN-Hydro2, ADGN-Hydro3, ADGN-Hydro4, ADGN-Hydro5, ADGN-Hydro6 and ADGN-peptide/ADGN-100PEG 10% nanoparticles containing 0.25 μg mRNA were formed in sterile water, diluted in sterile water containing 5% Sucrose and filtered with 0.45 μm PES filters. ADGN/mRNA complexes were incubated for 3 hrs in the presence of either 25% serum or heparan sulfate prior transfection. Luciferase expression was monitored 72 hours post transfection and results were reported as RLU (luminescence):mg of protein.
Complex formation with mRNA. The following protocols were used for the transfection of 2-5 106 Cells or Cells at confluency of about 70-80% cultured in 24 well plates. ADGN peptide/mRNA particles were prepared at a 20:1 molar ratio of ADGN-Peptide/mRNA. using (0.25 μg) mRNA. Luc mRNA (0.25 μg) was diluted in 20 μl of sterile water (GIBCO) at room temperature. 5 μl Final Peptide Solution was added to obtain a total volume of 20 μl. The volume was adjusted to 50 μl with sterile water and was mixed gently with vortex 1 min low speed and incubated 30 min at room temperature. Then the volume was made up to 100 μl by adding sterile water containing 5% sucrose, and the solution was mixed gently with vortex 1 min low speed and incubate 5 min at 37° C. and then was proceeded to cell transfection.
Transfection protocol. Protocol is reported for 24 well plate format. Cells were cultured in Dulbecco's Modified Eagle's Medium (DMEM), supplemented with 2 mM glutamine, 1% antibiotics (streptomycin 10,000 μg/mL, penicillin, 10,000 IU/mL) and 10% (w/v) foetal calf serum (FCS), at 37° C. in a humidified atmosphere containing 5% CO2. 24 well plates seeded with 150,000 cells the day prior to transfection were grown to 50-60% confluence and set up to be at about 70% confluences at the time of transfection. Before transfection, cells were washed twice with DMEM. Cells were then overlaid with 0.1 ml of ADGN-peptide/cargo complex solution containing 0.25 μg mRNA, 0.15 μg plasmid DNA or 10-25 nM siRNA, mixed gently, and incubated for 10 min at 37° C. 0.2 mL of fresh DMEM, were added and cells were incubated for 20 min at 37° C. 1 mL of complete DMEM containing 15% FCS were then added in order to reach a final FCS concentration of 10%, without removing the overlay of ADGN-peptide/cargo complexes. Cells were returned to the incubator (37° C., 5% CO2) and 72 hrs post transfection.
ADGN-peptides were evaluated for cellular delivery of Luciferase mRNA in 293T cells. A single dose of mRNA of 0.25 μg was evaluated. Luc mRNA (0.25 μg) in sterile water (GIBCO) were mixed with ADGN-100, ADGN-100RI, ADGN-106, ADGN-106RI, ADGN-100 Stearyl, ADGN-Hydro1, ADGN-Hydro2, ADGN-Hydro5 and ADGN-Hydro6. ADGN-peptide/mRNA complexes were filtered with 0.45 μm PES filter. In order to evaluate the stability of the ADGN/mRNA complexes in high serum and cell culture conditions, the complexes were incubated for 3 hrs in the presence of either 25% serum or heparan sulfate prior transfection, then 293T cells were transfected and Luciferase expression was monitored at 72 hrs.
ADGN-106 peptides containing YIGSR targeting sequence were evaluated for cellular delivery of Luciferase mRNA in 293T cells. A single dose of mRNA of 0.25 μg was evaluated. Luc mRNA (0.25 μg) in sterile water (GIBCO) were mixed with ADGN-106 and ADGN-106Hydro variant. ADGN-peptide/mRNA complexes were filtered with 0.45 μm PES filter. The ADGN-106/mRNA complexes were incubated for 3 hrs in the presence of 25% serum prior transfection, then 293T cells were transfected and Luciferase expression was monitored at 72 hrs.

ASSLNIA-Ava-KWWERWWREWPRKRR (ASSLNIAKWWERWWREWPRKRR; Ava linker; VARIANT 7, 8 Linked by a 5-amino pentanoic acid) [VEPEP-3C]
Targeted Organ (mice or rat models): Muscle

Ac-(PEG)2-βA-KWRSALWRWRLWRVRSWSR-NH2 ({Ac-PEG2′}-[βAla]KWRSALWRWRLWRVRSWSR-NH2) [ADGN-100-PEG2]
Targeted Organ (mice or rat models): Lung:Liver/; also recorded: Spleen

Ac-(PEG)2-βALWRALWRLWRSLWRLLWKA-NH2 ({Ac-PEG2′}-[βAla]LWRALWRLWRSLWRLLWKA-NH2) [ADGN-106-PEG2]
Targeted Organ (mice or rat models): Lung/Kidney/; also recorded: Spleen

Ac-CKRAVRWWLRWASRWFSRWAWWR [VEPEP-9B]
Targeted Organ (mice or rat models): Heart

Ac-GYVS-Ava(CH2)2-ALWRALWRLWRSLWRLLWKA-NH2 [ADGN-106 hydro-4]
Targeted Organ (mice or rat models): Brain/Kidney

Ac-SYTSSTM-ava-KWWERWWREWPRKRR (SYTSSTMKWWERWWREWPRKRR; N-acetyl, Ava linker; VARIANT 1 N-terminal acetylation; VARIANT 7, 8 Linked by a 5-amino pentanoic acid) [VEPEP-3E]
Targeted Organ (mice or rat models): Brain

Ac-YIGSR-(G)2-ALWRALWRLWRSLWRLLWKA-NH2 [ADGN-106-Hydro-7]
reduction of efficiency / luciferase expression by modification or linker vs unmodified ADGN peptide (293T cells): 28%

Ac-YIGSR-(G)4-ALWRALWRLWRSLWRLLWKA-NH2 (Ac-YIGSRGGGGALWRALWRLWRSLWRLLWKA-NH2) [ADGN-106-Hydro-1]
luciferase expression (293T cells): high level of luciferase expression
reduction of efficiency / luciferase expression after serum treatment (293T cells): 40%

Ac-YIGSR-(PEG)2-βA-KWRSALWRWRLWRVRSWSR-NH2 (Ac-YIGSR[PEG2′][βAla]KWRSALWRWRLWRVRSWSR-NH2) [ADGN-100-HYPEG2]
Targeted Organ (mice or rat models): Lung

Ac-YIGSR-(PEG)2-βALWRALWRLWRSLWRLLWKA-NH2 (Ac-YIGSR[PEG2′][βAla]LWRALWRLWRSLWRLLWKA-NH2) [ADGN-106-HYPEG2]
luciferase expression (293T cells): high level of luciferase expression
reduction of efficiency / luciferase expression after serum treatment (293T cells): 21%
Targeted Organ (mice or rat models): Tumor/Lung

Ac-YIGSR-(PEG)4-βA-KWRSALWRWRLWRVRSWSR-NH2 (Ac-YIGSR[PEG4′][βAla]KWRSALWRWRLWRVRSWSR-NH2) [ADGN-100-HYPEG4]
Targeted Organ (mice or rat models): Lung

Ac-YIGSR-(PEG)4-βALWRALWRLWRSLWRLLWKA-NH2 (Ac-YIGSR[PEG4′][βAla]LWRALWRLWRSLWRLLWKA-NH2) [ADGN-106-HYPEG4]
reduction of efficiency / luciferase expression by modification or linker vs unmodified ADGN peptide (293T cells): 35%
Targeted Organ (mice or rat models): Tumor/Lung

Ac-YIGSR-(PEG)7-βALWRALWRLWRSLWRLLWKA-NH2 (Ac-YIGSR[PEG7′][βAla]LWRALWRLWRSLWRLLWKA-NH2) [ADGN-106-HYPEG7]
reduction of efficiency / luciferase expression by modification or linker vs unmodified ADGN peptide (293T cells): 72%

Ac-YIGSR-A-KWRSALWRWRLWRVRSWSR-NH2 (Ac-YIGSR[βAla]KWRSALWRWRLWRVRSWSR-NH2; SMILES CC[C@H](C)[C@H](NC(=O)[C@H](Cc1ccc(O)cc1)NC(C)=O)C(=O)NCC(=O)N[C@@H](CO)C(=O)N[C@@H](CCCNC(=N)N)C(=O)NCCC(=O)N[C@@H](CCCCN)C(=O)N[C@@H](Cc1c[nH]c2ccccc12)C(=O)N[C@@H](CCCNC(=N)N)C(=O)N[C@@H](CO)C(=O)N[C@@H](C)C(=O)N[C@@H](CC(C)C)C(=O)N[C@@H](Cc1c[nH]c2ccccc12)C(=O)N[C@@H](CCCNC(=N)N)C(=O)N[C@@H](Cc1c[nH]c2ccccc12)C(=O)N[C@@H](CCCNC(=N)N)C(=O)N[C@@H](CC(C)C)C(=O)N[C@@H](Cc1c[nH]c2ccccc12)C(=O)N[C@@H](CCCNC(=N)N)C(=O)N[C@H](C(=O)N[C@@H](CCCNC(=N)N)C(=O)N[C@@H](CO)C(=O)N[C@@H](Cc1c[nH]c2ccccc12)C(=O)N[C@@H](CO)C(=O)N[C@@H](CCCNC(=N)N)C(N)=O)C(C)C) [ADGN-100-Hydro]
Targeted Organ (mice or rat models): Lung/Kidney

Ac-YIGSR-Ahx-ALWRALWRLWRSLWRLLWKA-NH2 (Ac-YIGSR[Ahx]ALWRALWRLWRSLWRLLWKA-NH2; SMILES CC[C@H](C)[C@H](NC(=O)[C@H](Cc1ccc(O)cc1)NC(C)=O)C(=O)NCC(=O)N[C@@H](CO)C(=O)N[C@@H](CCCNC(=N)N)C(=O)NCCCCCC(=O)N[C@@H](C)C(=O)N[C@@H](CC(C)C)C(=O)N[C@@H](Cc1c[nH]c2ccccc12)C(=O)N[C@@H](CCCNC(=N)N)C(=O)N[C@@H](C)C(=O)N[C@@H](CC(C)C)C(=O)N[C@@H](Cc1c[nH]c2ccccc12)C(=O)N[C@@H](CCCNC(=N)N)C(=O)N[C@@H](CC(C)C)C(=O)N[C@@H](Cc1c[nH]c2ccccc12)C(=O)N[C@@H](CCCNC(=N)N)C(=O)N[C@@H](CO)C(=O)N[C@@H](CC(C)C)C(=O)N[C@@H](Cc1c[nH]c2ccccc12)C(=O)N[C@@H](CCCNC(=N)N)C(=O)N[C@@H](CC(C)C)C(=O)N[C@@H](CC(C)C)C(=O)N[C@@H](Cc1c[nH]c2ccccc12)C(=O)N[C@@H](CCCCN)C(=O)N[C@@H](C)C(N)=O) [ADGN-106 hydro-7]
Targeted Organ (mice or rat models): Lung/Tumor

Ac-YIGSR-Aun(CH2)6-ALWRALWRLWRSLWRLLWKA-NH2 [ADGN-106-Hydro-5]
luciferase expression (293T cells): high level of luciferase expression
reduction of efficiency / luciferase expression after serum treatment (293T cells): 15%
Targeted Organ (mice or rat models): Tumor/Lung/; also recorded: Pancreas/Liver

Ac-YIGSR-Balwralwrlwrslwrllwka-NH2 (Ac-YIGSR[βAla]LWRALWRLWRSLWRLLWKA-NH2) [ADGN-106-Hydro]
luciferase expression (293T cells): high level of luciferase expression
reduction of efficiency / luciferase expression after serum treatment (293T cells): 80%

KSYDTY-ava-ALRWLRWASRWFSRWAWR (KSYDTY[Ava]ALRWLRWASRWFSRWAWR) [VEPEP-9A]
Targeted Organ (mice or rat models): Brain/Lymphnode

KSYDTYAAETRRWASRWFSRWAWWR (not fully specified (N-terminus, C-terminus)) [VEPEP-9D]
Targeted Organ (mice or rat models): Brain/Lymphnode

LSSRLDA-Ava-KWWERWWREWPRKRR (LSSRLDAKWWERWWREWPRKRR; Ava linker; VARIANT 7, 8 Linked by a 5-amino pentanoic acid) [VEPEP-3D]
Targeted Organ (mice or rat models): Heart/Muscle

Stearyl-βA-ALWRALWRLWRSLWRLLWKA-NH2 (Stearyl-[βAla]ALWRALWRLWRSLWRLLWKA-NH2) [ADGN-106 Stearyl]
Targeted Organ (mice or rat models): Liver/Spleen

beta-AKWFERWFREWPRKRR (N-terminal beta-alanine; VARIANT 1 beta-A) [VEPEP-3a]
Targeted Organ (mice or rat models): Kidney/Pancreas

beta-ALRWWLRWASRWFSRWAWWR (N-terminal beta-alanine; VARIANT 1 beta-A) [VEPEP-9]
Targeted Organ (mice or rat models): Brain/Liver/; also recorded: Lung/Kidney/

beta-RWWLRWASRWFSRWAWR (not fully specified (residue 1, N-terminus); printed as beta-RWWLRWASRWFSRWAWR) [VEPEP-9C]
Targeted Organ (mice or rat models): Liver/Lung/; also recorded: Kidney/Brain
